Consider 30 compounds from patent US7687481B2, “Cannabinoid receptor antagonists/inverse agonists useful for treating obesity” (Jenrin Discovery, Inc., priority 2006, dated 2010).

pIC50: −log10 of the molar value.

In one data set the target is T1, human cannabinoid CB1 receptor (Homo sapiens, UniProt P21554).
T1 construct: expressed in transfected cells; host or cells: Chinese hamster ovary (CHO) cells, stably transfected; membrane preparation
T1 sequence (P21554 whole entry): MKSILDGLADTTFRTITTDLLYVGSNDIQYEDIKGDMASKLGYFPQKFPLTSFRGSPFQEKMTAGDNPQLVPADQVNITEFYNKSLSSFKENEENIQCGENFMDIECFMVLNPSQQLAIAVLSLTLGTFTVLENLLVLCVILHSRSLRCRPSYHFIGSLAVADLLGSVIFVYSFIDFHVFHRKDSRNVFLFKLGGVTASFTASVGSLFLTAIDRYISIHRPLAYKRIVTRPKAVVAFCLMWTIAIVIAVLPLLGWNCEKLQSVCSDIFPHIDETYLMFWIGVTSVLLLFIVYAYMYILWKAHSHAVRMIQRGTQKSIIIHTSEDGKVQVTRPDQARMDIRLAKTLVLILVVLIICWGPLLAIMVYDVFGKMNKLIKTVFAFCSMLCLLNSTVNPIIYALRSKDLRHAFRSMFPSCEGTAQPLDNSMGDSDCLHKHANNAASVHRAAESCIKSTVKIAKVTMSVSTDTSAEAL
Briefly: CB1 receptor affinity, [3H]CP-55,940 radioligand binding to CHO cell membranes.
Conditions: not given
On the procedure: CB1 receptor affinities can be determined using membrane preparations of Chinese hamster ovary (CHO) cells in which the human cannabinoid CB1 receptor is stably transfected (Biochem J. 1991, 279, 129-134) in conjunction with [3H]CP-55,940 as radioligand. After incubation of a freshly prepared cell membrane preparation with the [3H]-radioligand, with or without addition of test compound, separation of bound and free ligand is performed by filtration over glass fiber filters. Radioactivity on the filter is measured by liquid scintillation counting. The IC50 values can be determined from at least three independent measurements.
Tables A-E below describe selected examples of the present invention that have been synthesized and tested. The activities of these compounds are as follows: • +=an IC50 of ≦10 μM; • ++=IC50 of ≦1 μM; and, • +++=an IC50 ≦100 nM.
In turn, `CCOC(=O)C(CC(C)C)NC(=O)c1nn(-c2ccc(Cl)cc2Cl)c(-c2ccc(Cl)cc2)c1C` (stereo not shown) [Example A-8] had a pIC50 of over 7.00. `CCOC(=O)C(NC(=O)c1nn(-c2ccc(Cl)cc2Cl)c(-c2ccc(Cl)cc2)c1C)C(C)(C)C` (stereo not shown) [Example A-11] showed a pIC50 of over 7.00. Still for that read-out and setting: as for `Cc1c(C(=O)NC(C(N)=O)C(C)(C)C)nn(-c2ccc(Cl)cc2Cl)c1-c1ccc(Cl)cc1` (stereo not shown) [Example B-10], the figure is over 7.00.

Still in this data set, the particulars now being: Table A; read-out: CB1 Receptor Activity.
Take `CCOC(=O)CNC(=O)c1nn(-c2ccc(Cl)cc2Cl)c(-c2ccc(Cl)cc2)c1C` [Example A-1]: the pIC50 is over 5.00.

As to `CCOC(=O)C(Cc1ccccc1)NC(=O)c1nn(-c2ccc(Cl)cc2Cl)c(-c2ccc(Cl)cc2)c1C` (stereo not shown) [Example A-2], the pIC50 was over 6.00. As for `CCOC(=O)CCNC(=O)c1nn(-c2ccc(Cl)cc2Cl)c(-c2ccc(Cl)cc2)c1C` [Example A-3], the pIC50 was over 5.00. With `Cc1c(C(=O)NC(Cc2ccccc2)C(=O)O)nn(-c2ccc(Cl)cc2Cl)c1-c1ccc(Cl)cc1` (stereo not shown) [Example A-4], the pIC50 was over 5.00. Still for that read-out and setting: as for `CCOC(=O)CCCNC(=O)c1nn(-c2ccc(Cl)cc2Cl)c(-c2ccc(Cl)cc2)c1C` [Example A-5], the figure is over 5.00. On the same count and under the same terms, the value for `CCOC(=O)CC(C)NC(=O)c1nn(-c2ccc(Cl)cc2Cl)c(-c2ccc(Cl)cc2)c1C` (stereo not shown) [Example A-6] was over 6.00.

Take `CCOC(=O)C(C)NC(=O)c1nn(-c2ccc(Cl)cc2Cl)c(-c2ccc(Cl)cc2)c1C` (stereo not shown) [Example A-7]: the pIC50 was over 6.00.

As for `Cc1c(C(=O)NC(CC(C)C)C(=O)O)nn(-c2ccc(Cl)cc2Cl)c1-c1ccc(Cl)cc1` (stereo not shown) [Example A-9], the pIC50 was over 6.00. Same read-out and setting: the value for `CCOC(=O)C(NC(=O)c1nn(-c2ccc(Cl)cc2Cl)c(-c2ccc(Cl)cc2)c1C)C(C)CC` (stereo not shown) [Example A-10] was over 7.00; that for `Cc1c(C(=O)NC(C(=O)O)C(C)(C)C)nn(-c2ccc(Cl)cc2Cl)c1-c1ccc(Cl)cc1` (stereo not shown) [Example A-12] was over 7.00.

Still in this data set, the particulars now being: Table B; read-out: CB1 Receptor Activity.
Turning to `Cc1c(C(=O)NCCC(N)=O)nn(-c2ccc(Cl)cc2Cl)c1-c1ccc(Cl)cc1` [Example B-1], the pIC50 was over 5.00.

For the compound `Cc1c(C(=O)NC(C)CC(N)=O)nn(-c2ccc(Cl)cc2Cl)c1-c1ccc(Cl)cc1` (stereo not shown) [Example B-2], the pIC50 is over 5.00.

With `Cc1c(C(=O)NC(CC(C)C)C(N)=O)nn(-c2ccc(Cl)cc2Cl)c1-c1ccc(Cl)cc1` (stereo not shown) [Example B-3], the pIC50 is over 6.00. The same measure, in the same setting: the value for `CCC(C)C(NC(=O)c1nn(-c2ccc(Cl)cc2Cl)c(-c2ccc(Cl)cc2)c1C)C(N)=O` (stereo not shown) [Example B-4] was over 7.00. Same read-out and setting: the value for `Cc1c(C(=O)NC(Cc2ccccc2)C(N)=O)nn(-c2ccc(Cl)cc2Cl)c1-c1ccc(Cl)cc1` (stereo not shown) [Example B-5] was over 7.00. On to `Cc1c(C(=O)NCc2cccc(C(N)=O)c2)nn(-c2ccc(Cl)cc2Cl)c1-c1ccc(Cl)cc1` [Example B-6], for which the pIC50 was over 6.00. Still for that read-out and setting: the value for `Cc1c(C(=O)NCc2ccc(C(N)=O)cc2)nn(-c2ccc(Cl)cc2Cl)c1-c1ccc(Cl)cc1` [Example B-7] was over 6.00; that for `Cc1c(C(=O)NCc2cccc(C(=N)N)c2)nn(-c2ccc(Cl)cc2Cl)c1-c1ccc(Cl)cc1` [Example B-8] was over 6.00. Same read-out and setting: the value for `Cc1c(C(=O)NCc2ccc(C(=N)N)cc2)nn(-c2ccc(Cl)cc2Cl)c1-c1ccc(Cl)cc1` [Example B-9] was over 5.00.

The data set is the same for the next values; noted with them: Table C; read-out: CB1 Receptor Activity.
Regarding `CCOC(=O)C1CCCN(NC(=O)c2nn(-c3ccc(Cl)cc3Cl)c(-c3ccc(Cl)cc3)c2C)C1` (stereo not shown) [Example C-1], the pIC50 was over 6.00. Still for that read-out and setting: the value for `CCOC(=O)C1CCN(NC(=O)c2nn(-c3ccc(Cl)cc3Cl)c(-c3ccc(Cl)cc3)c2C)CC1` [Example C-2] was over 6.00; that for `Cc1c(C(=O)NN2CCCC(C(N)=O)C2)nn(-c2ccc(Cl)cc2Cl)c1-c1ccc(Cl)cc1` (stereo not shown) [Example C-3] was over 7.00.

Still in this data set, the particulars now being: Table E; read-out: CB1 Receptor Activity.
For the compound `CCOC(=O)C1CCC(NC(=O)c2nn(-c3ccc(Cl)cc3Cl)c(-c3ccc(Cl)cc3)c2C)CC1` (stereo not shown) [Example E-1], the pIC50 was over 5.00. The same measure, in the same setting: the value for `Cc1c(C(=O)NC2CCC(C(N)=O)CC2)nn(-c2ccc(Cl)cc2Cl)c1-c1ccc(Cl)cc1` (stereo not shown) [Example E-2] was over 5.00.

Tested on in the next data set: not given
Test: not given
To be noted: dose-related, most pronounced at the most efficacious weight-reducing dose; cited from earlier work.
Consider `Cc1c(C(=O)NN2CCCCC2)nn(-c2ccc(Cl)cc2Cl)c1-c1ccc(Cl)cc1` [rimonabant], for which the side effects result was “psychiatric and nervous system side effects”.

The same data set, now with this note: obese patients; cited from earlier work.
Consider `Cc1c(C(=O)NN2CCCCC2)nn(-c2ccc(Cl)cc2Cl)c1-c1ccc(Cl)cc1` [rimonabant], for which the weight loss result is “clinically meaningful weight loss”.

Tested on in the next data set: not given
Test: not given
The note with it: usually not maintained; cited from earlier work.
With `CCCCCCCCCCC[C@@H](C[C@@H]1OC(=O)[C@H]1CCCCCC)OC(=O)[C@H](CC(C)C)NC=O` [orlistat], the “initial weight loss compared to placebo” value is “approximately 5%”.

With `CC(C)CC(N(C)C)C1(c2ccc(Cl)cc2)CCC1` (stereo not shown) [sibutramine], the “initial weight loss compared to placebo” value is reported as “approximately 5%”.
